The record followed here is ChEMBL document CHEMBL3507680, “University of Dundee, Gates Library screen for HepG2 cell viability”.

The nature of this data set: Human HepG2 cell viability assay in 384 well format. The note with it: HepG2 cells, read-out: Inhibition. Details: dose 125 nL, time 70.5 hour; concentration not given beside the values. The data set is classed as toxicity, cell-based.
Consider `CC(C)CCN1CCN(c2ncnc3nc(N)ccc23)CC1`, for which the cytotoxicity at 70.5 h is -2.35%.

Turning to `COc1ncccc1C(=O)N1CC(c2nc(-c3ccco3)no2)C1`, the cytotoxicity at 70.5 h is 15.9%.

Consider `COc1cccc(F)c1C(C)NC(=O)NCc1cc(C(C)C)no1` (stereo not drawn), for which the cytotoxicity at 70.5 h was -12.9%.

Turning to `COc1ccc(C(=O)C2CCCN(Cc3ccc(C)o3)C2)c(OC)c1` (stereo not drawn), the cytotoxicity at 70.5 h is -4.07%.

For the compound `CCCS(=O)(=O)c1ccc(N2CCN(c3ccccn3)CC2)nn1`, the cytotoxicity at 70.5 h was found to be 2.28%.

Turning to `Cc1ccsc1C(=O)N1CCc2ncc(CN3CCCC3)n2CC1`, the cytotoxicity at 70.5 h is -4.02%.

Regarding `CNC(=O)N1C[C@H]2N(c3ncccn3)CCC[C@@]2(C(=O)NCC2CC2)C1`, the cytotoxicity at 70.5 h was 0.471%.

For the compound `Cc1ncc(C(=O)N2CCOC(C(=O)N3CCCCCC3)C2)c(C)n1` (stereo not drawn), the cytotoxicity at 70.5 h stood at 1.17%.

On to `O=C(Nc1cccc(Cn2cccn2)c1)N1CCCC(N2CCCC2)C1` (stereo not drawn), for which the cytotoxicity at 70.5 h is -4.22%.

As for `CCN1C[C@H]2CCN(C(=O)NC)CC[C@H]2S1(=O)=O`, the cytotoxicity at 70.5 h is 49%.

As for `c1ccc2cc(OCCN3CCn4c(nnc4C4CC4)C3)ccc2c1`, the cytotoxicity at 70.5 h is 31%.

Turning to `Cc1nnc(N2CCCC3(CN(Cc4nccs4)CCO3)C2)o1` (stereo not drawn), the cytotoxicity at 70.5 h stood at 34.9%.

For `CC(C)(C(=O)NCC(=O)NC1CC1)c1ccccc1F`, the cytotoxicity at 70.5 h amounted to 2.62%.

With `COCCNC(=O)N1CCCC1COc1ccccc1` (stereo not drawn), the cytotoxicity at 70.5 h is -8.27%.

On to `Cc1nc(O)cc(C2CCCN(C(=O)c3cccc(N(C)C)c3)C2)n1` (stereo not drawn), for which the cytotoxicity at 70.5 h is 5.24%.

As for `CC(C)CN(C)c1ccc(C(=O)N2CCCC2c2cnn(C)c2)cn1` (stereo not drawn), the cytotoxicity at 70.5 h is 21.8%.

Turning to `CC(C(=O)N1CCCN(c2ncccc2C#N)CC1)n1ccnc1` (stereo not drawn), the cytotoxicity at 70.5 h stood at 21.6%.

Turning to `CC(=O)c1ccc(Cl)c(Cl)c1OCC(=O)NC(N)=O`, the cytotoxicity at 70.5 h was determined as 14.2%.

Take `O=C(NCc1ccco1)N(CCCO)C1CCCc2ccccc21` (stereo not drawn): the cytotoxicity at 70.5 h is -5.76%.

For `CCC[C@@H]1CN(Cc2ccc3c(c2)OCCO3)C[C@H]1C(=O)O`, the cytotoxicity at 70.5 h is -0.0956%.

`Cc1cccc(C(C(=O)N2CCN(C(=O)c3ccc[nH]3)CC2)N(C)C)c1` (stereo not drawn): the cytotoxicity at 70.5 h is -8.99%.

Turning to `O=C1CC2(CCCNC2)C(=O)N1Cc1cccc(F)c1` (stereo not drawn), the cytotoxicity at 70.5 h was -8.03%.

As to `CC(C)N1CCOC(CC(=O)N2CCCN(c3ccc(F)cc3)CC2)C1` (stereo not drawn), the cytotoxicity at 70.5 h is -3.4%.

As for `CCc1cc(N2CCC(Nc3ccc4nnc(C)n4n3)CC2)ncn1`, the cytotoxicity at 70.5 h turned out to be 2.09%.

Take `COCCN1C(=O)CC[C@]12CC[C@@H](NCc1ccc(OC)cc1)CC2`: the cytotoxicity at 70.5 h was 0.729%.

In the case of `CCc1nc(CN2CCCC(N(C)Cc3nc(C)c(C)o3)C2)no1` (stereo not drawn), the cytotoxicity at 70.5 h was -74.1%.

Regarding `NCc1cn(CC2CCCN(C(=O)NCc3ccc(Cl)cc3)C2)nn1` (stereo not drawn), the cytotoxicity at 70.5 h was 2.71%.

`COCCN1CC[C@@H]2CN(Cc3nccn3C)C[C@@H]2C1`: the cytotoxicity at 70.5 h worked out at 8.43%.

Take `CC(C)CC(=O)N[C@H](C)c1c(-c2ccc(Cl)cc2)noc1C(=O)O`: the cytotoxicity at 70.5 h was -7.33%.

In the case of `Cc1ccc(C#N)c(N2CC(C)(C)[C@@](C)(O)C2)n1`, the cytotoxicity at 70.5 h is -6.73%.

For the compound `O=C(O)CCn1ccc(=O)c2cc(F)ccc21`, the cytotoxicity at 70.5 h was -11.9%.

Turning to `CC(C)(C)NC(=O)CN1CCNCC1`, the cytotoxicity at 70.5 h was determined as 6.83%.

`COc1ccccc1C(=O)N1CCC(Nc2ccc(C)nn2)CC1`: the cytotoxicity at 70.5 h was -8.98%.

Regarding `O=C(Nc1nccs1)C1CCN(Cc2cccc3c2OCCO3)CC1`, the cytotoxicity at 70.5 h is 6.98%.

Take `CC(=O)c1cccc(S(=O)(=O)N2CCC(c3n[nH]c(C)n3)CC2)c1`: the cytotoxicity at 70.5 h was determined as 2.75%.

As for `CN(CCCOc1ccccc1)S(=O)(=O)c1cnn(C)c1`, the cytotoxicity at 70.5 h is 21.2%.

Turning to `O=C(NCc1ccc(Cl)cc1Cl)NCC1(O)CCSC1` (stereo not drawn), the cytotoxicity at 70.5 h stood at 18.5%.

On to `CCOCC1CN(S(C)(=O)=O)Cc2ncn(CC3CC3)c21` (stereo not drawn), for which the cytotoxicity at 70.5 h is 3.76%.

`CNS(=O)(=O)CCNC(=O)c1coc(COc2ccc(F)cc2)n1`: the cytotoxicity at 70.5 h was -4.33%.

Regarding `COCCOc1ccc(NC(=O)C2CC(=O)N(C(C)C)C2)cn1` (stereo not drawn), the cytotoxicity at 70.5 h is -4.64%.

As to `Cc1n[nH]c(CN2CCN(CC3CC3)[C@@H]3CS(=O)(=O)C[C@@H]32)n1`, the cytotoxicity at 70.5 h was determined as 44.8%.

Turning to `O=C(COCC(F)(F)C(F)F)N1CCC2(CCCN(CCO)C2=O)C1` (stereo not drawn), the cytotoxicity at 70.5 h is -2.98%.

On to `Cc1nc(CN(C)C2CCN(Cc3ccc4c(c3)OCCO4)C2)no1` (stereo not drawn), for which the cytotoxicity at 70.5 h was -2.2%.

For the compound `CC(=O)Nc1nc(-c2ccc(C)c(C)c2)c[nH]1`, the cytotoxicity at 70.5 h was 0.35%.

In the case of `CC1=N[C@@]2(CC[C@@H]3CN(C(=O)NCC(C)C)C[C@@H]32)C(=O)N1C`, the cytotoxicity at 70.5 h was -0.53%.

As for `NC(=O)c1ccc(CNC(=O)Nc2cn[nH]c2)cc1`, the cytotoxicity at 70.5 h is 16%.

`CCc1ccsc1C(=O)N1CCN(CCN2C(=O)CCC2=O)CC1`: the cytotoxicity at 70.5 h was -3.69%.

Turning to `CCOCc1ncn2c1CN(C(=O)Nc1cccc(C)c1)CC2`, the cytotoxicity at 70.5 h is -6.82%.

Consider `Cc1nc(C)c(C)c(N2CCC(O)(c3ccc(F)cc3)CC2)n1`, for which the cytotoxicity at 70.5 h is -6.02%.

`CC(C)(C)CC(=O)NCC(=O)Nc1ccn(Cc2ccccc2)n1`: the cytotoxicity at 70.5 h is -11%.

Regarding `CN(C)C(=O)[C@@H]1C[C@@H]2CCN(C3CCOCC3)C[C@H]2O1`, the cytotoxicity at 70.5 h is -4.53%.

`Cc1c(CNC2CCN(c3ccccc3OC(F)F)C2)cnn1C` (stereo not drawn): the cytotoxicity at 70.5 h was -3.92%.

`COc1ccc(C2CC(=O)Nc3c2cnn3C)cc1` (stereo not drawn): the cytotoxicity at 70.5 h was found to be 4.68%.

`Cc1cnn(C2(C(=O)O)CCN(c3ccnc4cc(Cl)ccc34)CC2)c1`: the cytotoxicity at 70.5 h is -5.05%.

Take `COc1ccc2c(c1)CCN(Cc1cscn1)CC2`: the cytotoxicity at 70.5 h was -0.57%.

Turning to `Cn1cc(C2=NOC(C(=O)NC3(c4ccccc4)CCCC3)C2)cn1` (stereo not drawn), the cytotoxicity at 70.5 h is -3.59%.

`CC1COCCN1c1ncnc2sccc12` (stereo not drawn): the cytotoxicity at 70.5 h is 6.87%.

As to `CC(=O)N1CCC12CCN(Cc1ccco1)CC2`, the cytotoxicity at 70.5 h is 19.9%.

Turning to `CCN1CC2(CCNCC2)COc2ccccc2S1(=O)=O`, the cytotoxicity at 70.5 h was -15.6%.

Turning to `COCc1nnc(-c2cccc(C(=O)OC(C)C)c2)o1`, the cytotoxicity at 70.5 h was -8.2%.

For `Cc1cccnc1C(=O)N1CCCC(c2[nH]ncc2S(C)(=O)=O)C1` (stereo not drawn), the cytotoxicity at 70.5 h is 0.897%.

Turning to `Cc1c[nH]c(C(=O)N2CCC(c3nnc(CN(C)CCO)n3C)CC2)c1`, the cytotoxicity at 70.5 h is 4.25%.

As to `CCc1nnc(Nc2cccc(C3CCN(C(=O)CN(C)C)CC3)n2)s1`, the cytotoxicity at 70.5 h was 9.15%.

For `COCc1cccc(NC(=O)N(C)Cc2ncc(C)c(OC)c2C)c1`, the cytotoxicity at 70.5 h was -3.88%.

Consider `NC(=O)c1cccc(CN2CCc3c(ncn3C3CC3)C2)c1`, for which the cytotoxicity at 70.5 h worked out at 23.7%.

On to `O=C(c1cnc(Cc2c(Cl)cccc2Cl)nc1O)N1CCNCC1`, for which the cytotoxicity at 70.5 h worked out at 8.34%.

For the compound `COCCNc1nc(N2CCCC2)nc2nccnc12`, the cytotoxicity at 70.5 h came to 26.5%.

On to `CC(C)(CNC(=O)C(C)(C)c1ccccc1F)C(N)=O`, for which the cytotoxicity at 70.5 h is 2.08%.

On to `Cc1nn(C)c2cn(CC(=O)N3CCN(c4ccccn4)CC3)nc12`, for which the cytotoxicity at 70.5 h stood at 5.73%.

Take `COc1cccc(C(=O)N2CCc3c(nc(N)[nH]c3=O)C2)c1C`: the cytotoxicity at 70.5 h stood at 1.02%.

Turning to `CCC(=O)N(CC)C(c1cccnc1)c1ccc2c(c1)CCO2` (stereo not drawn), the cytotoxicity at 70.5 h was -2.76%.

On to `OC1CCN(CCNc2ncc3c(n2)CCN3c2ccccc2)CC1`, for which the cytotoxicity at 70.5 h was -7.98%.

Consider `CC(C(=O)NCC1(c2cccc(Br)c2)CCC1)S(C)(=O)=O` (stereo not drawn), for which the cytotoxicity at 70.5 h is 7%.

Consider `Cc1ccc2c(n1)N(CCn1cccn1)CCN(S(C)(=O)=O)C2`, for which the cytotoxicity at 70.5 h was determined as 27.2%.

On to `CCn1cnnc1CNC(=O)NC(C)c1ccc(Cl)s1` (stereo not drawn), for which the cytotoxicity at 70.5 h was -0.949%.

In the case of `Cc1ccc(OCC(=O)Nc2ccc(S(C)(=O)=O)cc2)cc1C`, the cytotoxicity at 70.5 h came out at 14%.

On to `CCc1nnsc1C(=O)NCCC1CCCN(C(C)C)C1` (stereo not drawn), for which the cytotoxicity at 70.5 h was 24.8%.

For `Cc1cnn(CC2CCCN2Cc2noc(C(C)C)n2)c1` (stereo not drawn), the cytotoxicity at 70.5 h is -5.54%.

Turning to `CN1[C@H](Cn2cncn2)C[C@@H]2CN(C3CCOCC3)CC[C@@H]21`, the cytotoxicity at 70.5 h stood at 0.159%.

Take `CCOC(=O)c1cnn(C2CCN(C(=O)CC3CCCC3)CC2)c1N`: the cytotoxicity at 70.5 h was -2.45%.

Turning to `Cc1ccc(CN2CCc3onc(C(=O)NC(C)C)c3C2)o1`, the cytotoxicity at 70.5 h was -8.41%.

As to `Cc1nn(C)c(N(C)C)c1CNCc1ccc(C(=O)N(C)C)cc1`, the cytotoxicity at 70.5 h was determined as 4.69%.

As for `CC(NCC1(N(C)C)CCOCC1)c1ccc(SC(F)F)cc1` (stereo not drawn), the cytotoxicity at 70.5 h came out at 2.6%.

Regarding `Cc1cnn(CCNc2ncnc3c2CCN(CC2CCOC2)CC3)c1` (stereo not drawn), the cytotoxicity at 70.5 h is -2.24%.

On to `O=C(NCCc1ccccn1)[C@@]12CCO[C@@H]1CCN(c1ncccn1)C2`, for which the cytotoxicity at 70.5 h was -2.15%.

`O=C([C@@H]1CCS(=O)(=O)[C@@H]2CN(c3ncccn3)C[C@@H]21)N1CCOCC1`: the cytotoxicity at 70.5 h is -1.98%.

Regarding `Cc1ccc(N2C(=O)N[C@@H]3CCN(C(=O)C4CCCC4)[C@@H]3C2=O)cc1`, the cytotoxicity at 70.5 h is -13.1%.

Take `c1ccc(CN2CCCC(CNc3ncnc4c3CCNCC4)C2)cc1` (stereo not drawn): the cytotoxicity at 70.5 h is -6.09%.

For the compound `Cc1cnc(N2CCn3cc(CNC(=O)CC4CC4)nc3C2)nc1`, the cytotoxicity at 70.5 h worked out at 25.9%.

Consider `O=C(NCc1ccccc1CN1CCCC1)Nc1cccnc1`, for which the cytotoxicity at 70.5 h was -4.93%.

As for `COc1ccc(CN2C[C@H]3CCC[C@@H](CN(C)C)[C@H]3C2)cn1`, the cytotoxicity at 70.5 h is -2.35%.

With `Cc1nnc(CSCc2ccc(OCC(F)(F)F)nc2)o1`, the cytotoxicity at 70.5 h is -4.42%.

Consider `COc1ccc(C(=O)N2CCCCC2c2nc(C)cs2)nn1` (stereo not drawn), for which the cytotoxicity at 70.5 h worked out at 23.8%.

In the case of `Cc1ccc2nc(C)cc(NCCNS(=O)(=O)c3cn(C)nc3C)c2c1`, the cytotoxicity at 70.5 h amounted to 0.534%.

With `Cc1nc(CN2CCC3(CCCN(Cc4ccncc4)C3)C2=O)cs1` (stereo not drawn), the cytotoxicity at 70.5 h is -11.1%.

As for `Cc1ccc(C(=O)N(CC2CCCO2)c2ccncc2)o1` (stereo not drawn), the cytotoxicity at 70.5 h was -8.12%.

Regarding `Cc1cc(NCc2cc3n(n2)CCCN(C(=O)N(C)C)C3)ncn1`, the cytotoxicity at 70.5 h is -12.5%.

In the case of `CN(C)c1ccc(CNC(=O)Nc2ccc(S(C)(=O)=O)nc2)cc1`, the cytotoxicity at 70.5 h was -7.69%.
